Type in all cases: cell-based
For assay [1], the system named is porcine oocytes. Put plainly: Divalent cation influx after InsP3 injection, Mn2+-quench technique. Here is the method:
(§1) The oocytes were loaded with the Ca^2+ indicator dye fura-2 by being incubated in the presence of 2 μM acetoxymethyl ester form of the dye and 0.02% pluronic F-127 (both from Molecular Probes, Inc., Eugene, Oreg.) for 40-50 minutes. After incubation the oocytes were rinsed, exposed to various treatments and the changes in the intracellular free Ca^2+ concentration ([Ca^2+]i) were followed using a Photoscan-2 photon counting fluorescent microscope system (Nikon Corp., Tokyo, Japan) as described by Macháty et al., Biol Reprod 1997a; 56:921-930. Fluorescence was recorded by calculating the ratio of fura-2 fluorescence at 510 mn excited by UV light alternatively at 340 and 380 nm. Intracellular free Ca^2+ levels are presented as fluorescent ratio values with ratios of 1.2 and 6.5 representing 65 and 602 nM Ca^2+, respectively.
To induce the release of Ca^2+ from the intracellular stores, the second messenger InsP3 was injected into the oocytes' cytoplasm using a microinjector (Narishige Co. Ltd., Tokyo, Japan). InsP3 was dissolved in carrier medium consisting of 10 mM Hepes and 100 μM EGTA buffered at pH 7.0. The amount injected was about 40 pl, which is 4% of the total cytoplasmic volume of ˜1000 pl. Microinjection was performed in HEPES-TL-PVA on a heated stage of a Nikon Diaphot inverted microscope (Nikon Corp., Tokyo, Japan).
The onset of a divalent cation influx after a Ca^2+ transient was investigated by using the manganese (Mn^2+)-quench technique disclosed by Hallam et al., Biochem. J. 1988; 255:179-184. Release of Ca^2+ from the intracellular stores was stimulated by intracellular injection of approximately 40 pl of 2.5 μM InsP3, the InsP3 receptor agonist. As a Ca^2+ surrogate, Mn^2+ was added to the external medium. Mn^2+ was reported to be able to translocate across the plasma membrane, bind fura-2 and quench its fluorescence. This technique enables measurement of divalent cation influx even when Ca^2+ release from the internal stores is coincident. The entry of Mn^2+ into the cell was monitored by imaging the resulting quench in fura-2 fluorescence at 510 nm excited alternatively at 340 and 360 nm. While the signal resulting from the 340 nm excitation is [Ca^2+]i sensitive, at 360 nm fura-2 fluorescence is independent of [Ca^2+]i and any decrease in fluorescence is due only to Mn^2+ entry.

The subject of assay [2] is porcine oocytes. Put plainly: Capacitative Ca2+ entry after store depletion and re-addition of Ca2+ (fura-2 fluorescence). Here is the method:
as §1
A Ca^2+ influx was generated in porcine oocytes by the depletion of the intracellular Ca^2+ stores. […] It is routinely used to drain the intracellular stores of their Ca^2+ content. Fura-2-loaded oocytes were incubated in Ca^2+-free HEPES-TL-PVA medium in the presence of 10-50 μM thapsigargin for 3 hours to deplete intracellular Ca^2+ stores. After washing in Ca^2+-free medium (to remove thapsigargin and ensure that the intracellular stores remain empty), normal Ca^2+-containing medium was added to the oocytes and the changes in the [Ca^2+]i were measured. Oocytes incubated in Ca^2+-free HEPES-TL-PVA for 3 hours without thapsigargin were used to show the Ca^2+ entry under normal conditions, when the intracellular Ca^2+ stores were full.

Assay [3] relates to porcine oocytes. Put plainly: Capacitative Ca2+ entry in oocytes expressing Drosophila trp. The conditions noted are these: 1 mM La3+. From the text: The plasmid vector pBluescript KS, containing the Drosophila trp cDNA ctrp-9 downstream of the T7 promoter (a generous gift from C. Montell) was transfected into Escherichia coli DH5α cells. Plasmid DNA was isolated and linearized with the restriction endonuclease KpnI (Promega Corp., Madison, Wis.) and mRNA was transcribed from the cDNA with T7 polymerase using the RiboMAX™ Large Scale RNA Production System (Promega), following the manufacturer's recommendations. In order to produce capped RNA transcripts, the reaction was performed in the presence of 3 mM m^7G(5′)ppp(5′)G (Boehringer-Mannheim Corp., Indianapolis, Ind.). Purified RNA was precipitated with 0.3 M sodium acetate and ethanol. The pellet was resuspended in diethylpyrocarbonate (DEPC)-treated water containing RNasin (1 IU/μl; from Promega) to a final concentration of approximately 800 ng/μl and the samples were stored in 3 μl aliquots at −70° C.
The Drosophila trp protein was expressed in porcine oocytes by injecting approximately 32 pg mRNA made by in vitro transcription of the cDNA and allowing 15 hours for translation. Control oocytes were injected with the carrier medium (DEPC-treated water). […] The baseline fluorescence of the oocytes was then recorded in Ca^2+-free HEPES-TL-PVA, and changes in [Ca^2+]i were measured for 20-30 minutes after the addition of Ca^2+-containing medium.

Assay [4] concerns porcine oocytes. Briefly: Ca2+ release by thapsigargin in Ca2+-free medium (fura-2 fluorescence). As to the method:
as §1
A Ca^2+ influx was generated in porcine oocytes by the depletion of the intracellular Ca^2+ stores. […] It is routinely used to drain the intracellular stores of their Ca^2+ content. Fura-2-loaded oocytes were incubated in Ca^2+-free HEPES-TL-PVA medium in the presence of 10-50 μM thapsigargin for 3 hours to deplete intracellular Ca^2+ stores. After washing in Ca^2+-free medium (to remove thapsigargin and ensure that the intracellular stores remain empty), normal Ca^2+-containing medium was added to the oocytes and the changes in the [Ca^2+]i were measured. […]

Where [5] appears, read: 1 mM La3+, InsP3 microinjected, Mn2+ added.

This note sets out measurements from patent publication US20030066100A1, “Capacitative calcium entry mechanism in porcine oocytes” (priority 2001, published 2003).

Structures are written as SMILES. “Also recorded” adds a separate entry of the source.

Regarding `O=P(O)(O)O[C@@H]1[C@H](O)[C@H](O)[C@@H](OP(=O)(O)O)[C@H](OP(=O)(O)O)[C@H]1O` [InsP3, inositol 1,4,5-trisphosphate], the “oocytes with rapid decline in fluorescence well below the basal value (Mn2+ entry)” value with porcine oocytes [1] (InsP3 microinjected, 3 mM Mn2+ in the external medium) was 14/14. Also, the “oocytes with transient elevation in fluorescence at 340 nm excitation (increase in [Ca2+]i)” value in the assay with porcine oocytes [1] (injection of about 40 pl of 2.5 μM InsP3) is recorded as 16 out of 16.
As for `[La+3]` [La^3+, lanthanum], in the assay on porcine oocytes [2] (1 mM La3+), the “block of thapsigargin-evoked Ca2+ entry” value is “totally inhibited; also recorded: completely blocked” and the “oocytes in which thapsigargin-evoked Ca2+ entry was blocked” value is given as 11/11. In addition, in the assay with porcine oocytes [1] (setting [5]), the “block of cation influx and decline in fluorescence at both wavelengths” value is “totally blocked”; the “oocytes in which fluorescence intensities stayed near the resting values” is listed as 7/7. For the same molecule, the “block of Ca2+ entry-evoked [Ca2+]i increase” value in the assay on porcine oocytes [3] was “completely blocked”.
For `C/C=C(/C)C(=O)O[C@H]1C(C)=C2[C@H]([C@@H]1OC(=O)CCCCCCC)[C@@](C)(OC(C)=O)C[C@H](OC(=O)CCC)[C@@]1(O)[C@H]2OC(=O)[C@@]1(C)O` [thapsigargin], in the assay with porcine oocytes [4] (10-50 μM thapsigargin in Ca2+-free medium), the “change in [Ca2+]i” value is “induced an increase in [Ca^2+]i”. In addition, in the assay with porcine oocytes [4] (10 and 20 μM thapsigargin, Ca2+-free medium), the “increase in [Ca2+]i relative to 50 μM” value is “slightly smaller increases in [Ca^2+]i”. The “start of the increase in [Ca2+]i after adding the HEPES-TL-PVA medium” value in the assay on porcine oocytes [2] (after thapsigargin store depletion) fell in the range of 0 to 300 s. In addition, the “oocytes showing Ca2+ entry (rise in [Ca2+]i) after re-addition of Ca2+” value with porcine oocytes [2] (stores emptied with thapsigargin for 3 hours in Ca2+-free medium) is 15 out of 18.
